# “Also recorded” adds a separate entry of the source. Read-outs that look alike come from different tables or passages of the source.
# Assays:
# [1] = system: mCherry expressing C. trachomatis serovar L2 454/Bu; assay: Primary screen of natural compound library, Chlamydia inclusion count (mCherry imaging and FITC immunostaining in duplicate plates); type: cell-based, Chlamydia trachomatis; details: Chlamydia trachomatis, 10 μM, 48 hpi, HeLa cells, vs DMSO control
# Method: A general and more detailed protocol for the screening assay is provided in (Supplementary Data Sheet 1) and an overview of the screening method is given in Figure 3. Since inhalation of C. trachomatis aerosols can cause laboratory acquired infections (Sewell, [1995]), all procedures involving handling of live infection in open plates were performed manually inside a class II safety cabinet using 8-channel electronic pipets (Rainin E4 XLS, Mettler Toledo, Barcelona, Spain) and an enclosed aspiration system (Intergra VacuSafe, Zizers, Switzerland).
# The primary screen of the 349 open access compound library was performed using the mCherry expressing C. trachomatis serovar L2 454/Bu in clear, flat 96-well plates (Nunc, Delta surface, Thermo Fischer Scientific). The primary screen was done in duplicates in separated plates; one plate was used for mCherry imaging and the other for FITC immunostaining. Cells were seeded at a density of 10,000 cells per well in 100 μl DMEM media 1 day prior to infection in culture media. Chlamydia infection was performed in 30 μl HBSS as described above with a MOI of 0.6 during 1 h at 37°C, 5% CO2. Compounds were diluted to 10 μM in DMEM with a final DMSO concentration of 0.5% and 100 μl per well was added after aspiration of HBSS. The plates were incubated for an additional 47 h at 37°C, 5% CO2 prior to imaging. One of the duplicate plates was used for mCherry imaging and one for FITC immunostaining. For mCherry imaging, HeLa cell nuclei were first stained by addition of 10 μl […] Hoechst per well and incubated at 37°C with 5% CO2 for 20 min. The infected cells were fixed in 4% paraformaldehyde (PFA) for 15 min and washed in PBS before image acquisition. Although fixation was not necessary for the analysis, it inactivated the infectious Chlamydia and enabled later analysis after storage at 4°C. For FITC immunostaining, cells were fixed in 150 μl methanol per well for 10 min, blocked in 1% BSA, 0.25% Tween-20 in PBS and incubated with 1:1,000 polyclonal rabbit anti-chlamydial serum in blocking buffer (Marwaha et al., [2014]). A FITC-conjugated donkey anti-rabbit antibody (Jackson ImmunoResearch) and 1 μg/ml Hoechst staining was used for staining followed by washing with blocking buffer. Images of nuclei (Hoechst-ex386/23 nm) and Chlamydia inclusions (FITC: ex485/20 nm; mCherry: ex549/15 nm) were acquired in the ArrayScan with the 10x objective and counted with the built in software. Chlamydia inclusions in DMSO control wells were used to determine an inclusion size cutoff to exclude small underdeveloped inclusions as well as fluorescent artifacts from the analyses.
# [2] = in vitro; type: cell-based; details: human, 48 h, percent of DMSO control; for viability at 25 µM: read-out: HeLa cell viability at 25 μM (%); for viability at 50 µM: read-out: HeLa cell viability at 50 μM (%) (converted)
# Method: (§1) HeLa299 cells were inoculated into clear, flat 96-well plates (Nunc, Delta surface, Thermo Fischer Scientific) with a density of 7,000 cells per well and cultured overnight at 37°C with 5% CO2 in […] supplemented with 10% FBS and 2 mM L-glutamine. The following day, the RPMI was replaced with DMEM without phenol red (Life Technologies, Carlsbad, CA, USA) containing 0.5% DMSO with or without test compounds at 25 and 50 μM concentrations incubated at 37°C with 5% CO2 for 48 h. At least three replicate wells for each compound concentration were tested. Wells without cells were used as blank controls. Following this incubation with compounds, cells were washed with DMEM to remove remaining colored compounds and fresh DMEM without phenol red was added before the XTT Cell Proliferation Assay kit was used according to the manufacturer's instructions (ATCC, Manassas, VA, USA). Briefly, activation reagent and XTT reagent were thawed at 37°C, then mixed in a 1:50 ratio with enough volume to add 50 μL to each well. The plates were placed in the 37°C incubator for 2.5 h. The absorbance of each well was then read at 475 nm and 660 nm with a Tecan Infinite m200 plate reader (Tecan, Männedorf, Switzerland). To analyze the data, the 660 nm reading was subtracted from the 475 nm reading to help eliminate non-specific readings from the assay results. Average blank control-well readings were subtracted from those containing cells. Final readings from wells containing compound were compared to DMSO control wells and expressed as percent of control.
# [3] = system: HeLa cells; assay: in vitro; type: cell-based; details: non-toxic = viability not below 70% of vehicle control at 25 μM
# Method: as §1
# [4] = system: mCherry expressing C. trachomatis; assay: Doxycycline susceptibility, large inclusion count by live mCherry imaging; type: cell-based; details: Chlamydia trachomatis, HeLa, 48 h, read-out: EC50 with 95% confidence interval
# Method: HeLa 299 cells, cultured to 70% confluence were harvested and seeded into 96-well plates (clear, flat, Nunclon Delta coated, Nunc, Thermo Fischer Scientific, Waltham, MA, USA) at a density of 10,000 per well in culture media (DMEM or RPMI 1640 supplemented with 10% FBS, 2 mM L-glutamine and 50 μg/ml gentamicin). After overnight incubation in 37°C with 5% CO2, adherent cells were infected with 30 μl mCherry expressing Chlamydia per well in HBSS with a multiplicity of infection (MOI) of 0.6. Chlamydia were incubated with the cells for 1 h at 37°C with 5% CO2 after which HBSS was removed and replaced with 100 μl culture media. DNA of host cell nuclei and Chlamydia inclusions were visualized by addition of 10 μl 10 μg/ml Hoechst 20 min prior to imaging. Live images were acquired 48 hpi in an automated HCS microscope (ArrayScan VTI, Thermo Fischer Scientific) using the 10x objective, excitation 549/15 nm for mCherry and excitation 386/23 nm for Hoechst. The number of large Chlamydia inclusions was enumerated using the built in software. An inclusion size cutoff was determined based on the 48 hpi Chlamydia inclusions to include normally developed Chlamydia inclusions and exclude fluorescent artifacts from the analyses. […] Large inclusions were counted by Arrayscan and EC50 values determined using GraphPad Prism v.5 (GraphPad software, La Jolla, CA, USA) with non-linear regression.
# [5] = system: wt C. trachomatis; assay: Doxycycline susceptibility, large inclusion count after immunostaining; type: cell-based; details: Chlamydia trachomatis; wt strain, HeLa cells, 48 h, FITC immunostaining; read-out: EC50 with 95% confidence interval
# [6] = system: wt C. trachomatis; assay: EC50 determination, large inclusion count in infected HeLa cells, FITC immunostaining; type: cell-based, Chlamydia trachomatis; details: wt strain, 44-48 h; for EC50: Chlamydia trachomatis, read-out: EC50 (95% confidence values)
# Method: (§2) HeLa cells were inoculated into 96-well plates (Nunc, Corning, New York, USA) with a density of 15,000 cells per well and cultured overnight at 37°C with 5% CO2 in RPMI 1640, supplemented with 10% FBS and 2 mM L-glutamine, and infected the following day with wt or mCherry C. trachomatis in HBSS. At 1 hpi, the inoculum was replaced with RPMI media containing 0.5% DMSO and serial 1:2 dilutions of the tested compounds. The infection was allowed to proceed for 44–48 h before fixation by aspiration of the media and adding methanol for 5 min. Chlamydia inclusions were immunostained as described above. The numbers of large inclusions were counted by the ArrayScan VTI HCS automated scanner. Inhibition of Chlamydia growth was evaluated as the number of inclusions in compound treated infections (evaluated in 12 fields per well, 20x objective) compared to the numbers of inclusions in DMSO treated control infections (% of control). EC50 values are representative of at least three independent experiments. The data analysis was performed using non-linear regression (curve fit) in GraphPad Prism v.5.
# [7] = system: mCherry expressing C. trachomatis; assay: as above; type: cell-based; details: Chlamydia trachomatis, read-out: EC50 (95% confidence values)
# Method: as §2
# [8] = ref Davis et al., 2013; cited from earlier work
# [9] = system: mCherry transformed C. trachomatis; assay: Live real time imaging of C. trachomatis infection (time-lapse 24-72 hpi); type: cell-based, Chlamydia trachomatis; details: HeLa cells
# Method: The anti-chlamydial effect over time of compound 6 (identified in the above screen) was visualized by a time-lapse experiment. HeLa cells were seeded at a concentration of 10,000 cells per well 1 day prior to infection. Chlamydia infection was performed as described above at MOI 0.6 with mCherry transformed C. trachomatis. Phenol red free DMEM culture media containing 6 or 3 μM 6 or 0.5% DMSO was added at 100 μl per well 1 hpi. Images were acquired with 1 h intervals with the 10x objective acquiring 4 fields per well during 48 h. The red channel was used for autofocusing and therefore imaging was initialized 24 hpi when the mCherry expressing inclusions were detectable, continuing to 72 hpi.
# [10] = system: mammalian cells; details: ref Davis et al., 2013; cited from earlier work
# [11] = MOI 0.6, FITC immunostaining, read-out: Screen inhibition at 10 μM (%) FITC
# [12] = MOI 0.6, mCherry detection, read-out: Screen inhibition at 10 μM (%) mCherry
Structure (SMILES),"inhibition at 10 µM [1, 11] [%]","inhibition at 10 µM [1, 12] [%]",viability at 25 µM [2] [%],viability at 50 µM [2] [%],Toxicity to HeLa cells (authors' call) [3],EC50 [4] [nM],EC50 [5] [nM],EC50 [6] [µM],EC50 [7] [nM],EC50 (95% confidence values) [6],"In vitro antimalarial effect, active concentrations [8]","Growth of red fluorescent Chlamydia inclusions in live imaging ([9]; 3 μM, compared to DMSO control)",Red fluorescent Chlamydia inclusions in live imaging ([9]; 6 μM),Toxicity in mammalian cells [10]
CCCCNC(=O)NCCc1c[nH]c2c1C(=O)C1=C(NC=CS1(=O)=O)C2=O [Compound 9],100,100,37 ± 6.5,11.5,toxic,–,–,–,–,–,–,–,–,–
C[C@H]1c2cccc(O)c2C(=O)C2=C(O)[C@]3(O)C(=O)C(C(N)=O)=C(O)[C@@H](N(C)C)[C@@H]3[C@@H](O)[C@@H]21 [doxycycline],–,–,–,–,–,32.8,54.4,–,–,–,–,–,–,–
CC(C)(C)NC(=O)NCCc1c[nH]c2c1C(=O)C1=C(NC=CS1(=O)=O)C2=O [Compound 8],100,100,30 ± 7,11,toxic,–,–,–,–,–,–,–,–,–
C[C@]1(O)Cc2c(O)c3c(c(O)c2[C@@H](O)C1)C(=O)C=C(NCCc1ccccc1)C3=O [Compound 2],100,66,≥ 70,31,non-toxic,–,–,23,–,–,–,–,–,–
CC(=O)NCCc1c[nH]c2c1C(=O)C1=C(NC=CS1(=O)=O)C2=O [Compound 7],100,99,17 ± 2,6,toxic,–,–,–,–,–,–,–,–,–
C[C@]1(O)Cc2c(O)c3c(c(O)c2[C@@H](O)C1)C(=O)C=C(NCCc1ccc(O)cc1)C3=O [Compound 3],100,–,41 ± 2.5,24,toxic,–,–,–,–,–,–,–,–,–
C[C@]1(O)Cc2c(O)c3c(c(O)c2[C@@H](O)C1)C(=O)C=C(NCCN1CCOCC1)C3=O [Compound 4],100,98,≥ 70,74,non-toxic,–,–,20.8,–,–,–,–,–,–
COCCNC1=CC(=O)c2c(O)c3c(c(O)c2C1=O)C[C@](C)(O)C[C@@H]3O [Compound 1],100,100,–,58.5,non-toxic,–,–,5.3,2800,low micromolar,–,–,–,–
NCCc1c[nH]c2c1C(=O)C1=C(NCCS1(=O)=O)C2=O [Compound 6],100,100,77 ± 0.2,55,non-toxic,–,–,2.8,1700,–,low nanomolar concentrations,grew at a slower pace; also recorded: continuous growth reduction,not detectable,non-toxic

# Source: article PMC6305398, “Red Fluorescent Chlamydia trachomatis Applied to Live Cell Imaging and Screening for Antibacterial Agents” (Frontiers in Microbiology, 2018)
